Data as given in US20100190199A1, “GPR30 ESTROGEN RECEPTOR IN BREAST AND OVARIAN CANCERS” (Rhode Island Hospital, priority 2008, published 2010).

Assays:
alpha and beta ERs = conditions: cited from earlier work
GPR30 = target: T1, GPR30 (Homo sapiens, UniProt Q99527); test: Estrogen-mediated fibronectin (FN) matrix assembly by human breast cancer cells; format: cell-based; conditions: stimulation of human breast cancer cells
T1 construct: human SKBR3 breast cancer cells (Erα^−, ERβ^−, GPR30^+); endogenous in cells

EGFR = conditions: breast cancer cells; behave similarly to estradiol; cited from earlier work
ER+ ovarian cancer = conditions: ovarian cancer patients, second-line therapy, Phase II; cited from earlier work

T1 sequence (Q99527 whole entry): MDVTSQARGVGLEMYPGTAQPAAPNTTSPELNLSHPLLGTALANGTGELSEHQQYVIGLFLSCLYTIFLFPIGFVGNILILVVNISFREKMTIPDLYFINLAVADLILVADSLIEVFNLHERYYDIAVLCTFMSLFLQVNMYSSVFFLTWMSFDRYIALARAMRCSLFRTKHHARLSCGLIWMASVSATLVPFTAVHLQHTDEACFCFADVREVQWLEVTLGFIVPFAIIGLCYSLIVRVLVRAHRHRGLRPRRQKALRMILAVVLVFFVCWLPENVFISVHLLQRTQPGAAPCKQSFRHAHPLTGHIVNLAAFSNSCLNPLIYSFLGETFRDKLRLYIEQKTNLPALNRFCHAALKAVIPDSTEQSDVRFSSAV

Row | Structure (SMILES) | Binding preference ERα versus ERβ (alpha and beta ERs) | EGFR activation (EGFR) | also measured
1 | C[C@]12CC[C@@H]3c4ccc(O)cc4CC[C@H]3[C@@H]1CC[C@@H]2O [17β-estradiol] | binds equally well to both receptors | – | –
2 | C[C@]12CC[C@@H]3c4ccc(O)cc4C[C@@H](CCCCCCCCC[S+]([O-])CCCC(F)(F)C(F)(F)F)[C@H]3[C@@H]1CC[C@@H]2O (stereo partly drawn) [ICI 182,780] | – | capable of triggering EGFR activation in breast cancer cells | FN matrix assembly: recruitment of FN-engaged integrin α5β1 conformers to fibrillar adhesions and synthesis of FN fibrils (GPR30): resulted in the recruitment of FN-engaged integrin α5β1 conformers to fibrillar adhesions and the synthesis of FN fibrils
3 | N#Cc1ccc(C(c2ccc(C#N)cc2)n2cncn2)cc1 [Letrozole] | – | – | Clinical response measured by ovarian cancer serum marker CA-125 (ER+ ovarian cancer): stable disease
4 | O=C(c1ccc(OCCN2CCCCC2)cc1)c1c(-c2ccc(O)cc2)sc2cc(O)ccc12 [raloxifene] | bind preferentially to the alpha receptor | – | –
5 | CC/C(=C(\c1ccccc1)c1ccc(OCCN(C)C)cc1)c1ccccc1 [tamoxifen] | – | capable of triggering EGFR activation in breast cancer cells | –
